Earlier results, collected in patent US7632519B2, “TRPV1 agonist compounds, formulations, prodrugs, methods for using the same” (NeurogesX, Inc., priority 2005, dated 2009).

Conditions: oral dose levels of up to 2 mg/kg, humans

In the case of `COc1cc(CNC(=O)CCCC/C=C/C(C)C)ccc1O` [capsaicin], the “adverse effects after oral dosing” value is listed as “without reported adverse effects”.
